Test results published in US11969506B2, “Lipid nanoparticle formulation” (ModernaTX, Inc., priority 2017, dated 2024).

Assays:
HeLa cells [1] = assay: Luciferase activity in HeLa cells transfected using LNPs with MK-571 (FIGS. 9D, 9E); type: cell-based; conditions: 24 hr pre-incubation with MK-571 (5 μM), increasing doses of mRNA
Description: FIG. 9D is a graph illustrating luciferase activity at increasing doses of mRNA in HeLa cells transfected using LNPs, with and without 24 hr pre-incubation with MK-571 (5 μM). Data represented as mean±SD; n=3.
FIG. 9E is a graph illustrating luciferase activity at increasing doses of mRNA in HeLa cells transfected using LNPs and MK-571 loaded LNPs. Data represented as mean±SD; n=3.

HeLa cells [2] = assay: Luciferase activity in HeLa cells transfected with mRNA-lipoplexes in the presence of bioactive lipids (FIGS. 9A-9C, 9F); type: cell-based
Description: FIG. 9A is a graph illustrating luciferase activity in HeLa cells transfected with mRNA-lipoplexes at a dose of 50 ng mRNA in the presence of bioactive lipids (black) normalized to mRNA-lipoplex only control (red), which was set at 100%. Data represented as mean±SEM; n=3. […] FIG. 9B is a graph illustrating luciferase activity in HeLa cells transfected with mRNA-lipoplexes at a dose of 50 ng mRNA in the presence of varying concentrations of MK-571 (blue) relative to mRNA-lipoplex only control (red). Data represented as mean±SD; n=3. […] FIG. 9C is a graph illustrating luciferase activity in HeLa cells transfected with mRNA-lipoplexes at a dose of 50 ng mRNA in the presence of varying concentrations of Arachidonic Acid (blue) relative to mRNA-lipoplex only control (red). Data represented as mean±SD; n=3. […] FIG. 9F is a graph illustrating luciferase activity in HeLa cells transfected with mRNA-lipoplexes at a dose of 50 ng mRNA in the presence of varying concentrations of MK-571 or its analogues, Montelukast, Pranlukast, and Zafirlukast relative to mRNA-lipoplex only control. Data represented as mean±SD; n=3.

Row | Compound | transfection (luciferase activity) using LNPs (HeLa cells [1]) | protein expression relative to mRNA-lipoplex only control (HeLa cells [2]; 50 ng mRNA, concentration of 5 μM) | enhancement of protein expression over the control (HeLa cells [2]; mRNA-lipoplexes 50 ng mRNA, lipoplex only control set at 100%) | luciferase activity (protein expression) relative to mRNA-lipoplex only control (HeLa cells [2]; 50 ng mRNA, varying concentrations)
1 | CN(C)C(=O)CCSC(SCCC(=O)O)c1cccc(/C=C/c2ccc3ccc(Cl)cc3n2)c1 (stereo not shown) [MK-571] | able to enhance transfection at all doses of mRNA | doubling the protein expression | approximately 40% | –
2 | CCCCC/C=C\C/C=C\C/C=C\C/C=C\CCCC(=O)O [Arachidonic Acid] | – | – | – | failed to elicit improvement in protein expression
